Assay results taken from ChEMBL document CHEMBL5442219.

What was measured:
Conditions in all cases: Compound concentration 10 µM
[1] = target: Beta-1 adrenergic receptor (Homo sapiens) (UniProt P08588)
[2] = target: Histamine H1 receptor (Homo sapiens) (UniProt P35367)
[3] = target: 5-hydroxytryptamine receptor 1D (Homo sapiens) (UniProt P28221)
[4] = target: T1, Alpha-2C adrenergic receptor (Homo sapiens) (UniProt P18825)
T1 sequence (whole entry): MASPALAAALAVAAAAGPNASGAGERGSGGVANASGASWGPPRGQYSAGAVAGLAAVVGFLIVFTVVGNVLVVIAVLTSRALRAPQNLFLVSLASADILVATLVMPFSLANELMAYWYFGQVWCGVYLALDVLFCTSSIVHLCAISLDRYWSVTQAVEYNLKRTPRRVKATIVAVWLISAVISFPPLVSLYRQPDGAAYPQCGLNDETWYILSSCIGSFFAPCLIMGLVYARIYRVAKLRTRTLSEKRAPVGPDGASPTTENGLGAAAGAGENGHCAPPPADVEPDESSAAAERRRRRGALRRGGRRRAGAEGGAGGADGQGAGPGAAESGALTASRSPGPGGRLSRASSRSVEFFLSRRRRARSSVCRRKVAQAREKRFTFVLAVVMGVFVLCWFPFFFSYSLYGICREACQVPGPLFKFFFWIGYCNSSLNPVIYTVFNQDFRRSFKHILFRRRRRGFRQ

[5] = target: Mu-type opioid receptor (Homo sapiens) (UniProt P35372)
[6] = target: Muscarinic acetylcholine receptor M3 (Homo sapiens) (UniProt P20309)
Sequence of Muscarinic acetylcholine receptor M3 (Homo sapiens) (P20309 whole entry, looked up): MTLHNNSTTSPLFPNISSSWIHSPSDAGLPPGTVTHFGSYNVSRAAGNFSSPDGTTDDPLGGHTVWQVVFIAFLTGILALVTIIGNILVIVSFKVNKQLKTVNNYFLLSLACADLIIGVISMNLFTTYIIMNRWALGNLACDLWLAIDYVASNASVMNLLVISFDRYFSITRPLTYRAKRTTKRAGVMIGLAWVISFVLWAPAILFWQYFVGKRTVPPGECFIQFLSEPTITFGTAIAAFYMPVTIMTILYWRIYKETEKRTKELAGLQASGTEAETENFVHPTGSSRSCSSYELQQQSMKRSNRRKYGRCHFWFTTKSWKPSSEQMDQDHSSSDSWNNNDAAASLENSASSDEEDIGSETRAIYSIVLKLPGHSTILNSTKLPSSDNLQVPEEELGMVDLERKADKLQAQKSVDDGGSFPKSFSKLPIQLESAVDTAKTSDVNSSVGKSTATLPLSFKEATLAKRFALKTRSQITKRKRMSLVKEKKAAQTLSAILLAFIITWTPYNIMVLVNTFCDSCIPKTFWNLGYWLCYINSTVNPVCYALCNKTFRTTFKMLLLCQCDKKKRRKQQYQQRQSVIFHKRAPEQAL

[7] = target: T2, Muscarinic acetylcholine receptor M1 (Homo sapiens) (UniProt P11229)
T2 sequence (whole entry): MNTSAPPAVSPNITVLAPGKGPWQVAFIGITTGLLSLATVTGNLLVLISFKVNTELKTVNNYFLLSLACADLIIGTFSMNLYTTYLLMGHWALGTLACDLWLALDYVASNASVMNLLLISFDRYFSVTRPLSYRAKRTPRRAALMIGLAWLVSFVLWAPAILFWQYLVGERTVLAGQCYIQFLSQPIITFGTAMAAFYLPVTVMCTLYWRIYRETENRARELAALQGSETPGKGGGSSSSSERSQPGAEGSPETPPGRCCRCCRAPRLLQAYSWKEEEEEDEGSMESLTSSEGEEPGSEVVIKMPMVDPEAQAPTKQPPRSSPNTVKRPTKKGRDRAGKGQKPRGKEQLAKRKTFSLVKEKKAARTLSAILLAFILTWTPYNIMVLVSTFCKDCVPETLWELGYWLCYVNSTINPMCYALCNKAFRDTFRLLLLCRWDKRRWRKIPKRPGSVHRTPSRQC

[8] = target: Sigma non-opioid intracellular receptor 1 (Homo sapiens) (UniProt Q99720)
[9] = target: 5-hydroxytryptamine receptor 2B (Homo sapiens) (UniProt P41595)
[10] = target: 5-hydroxytryptamine receptor 2A (Homo sapiens) (UniProt P28223)
Sequence of 5-hydroxytryptamine receptor 2A (Homo sapiens) (P28223 whole entry): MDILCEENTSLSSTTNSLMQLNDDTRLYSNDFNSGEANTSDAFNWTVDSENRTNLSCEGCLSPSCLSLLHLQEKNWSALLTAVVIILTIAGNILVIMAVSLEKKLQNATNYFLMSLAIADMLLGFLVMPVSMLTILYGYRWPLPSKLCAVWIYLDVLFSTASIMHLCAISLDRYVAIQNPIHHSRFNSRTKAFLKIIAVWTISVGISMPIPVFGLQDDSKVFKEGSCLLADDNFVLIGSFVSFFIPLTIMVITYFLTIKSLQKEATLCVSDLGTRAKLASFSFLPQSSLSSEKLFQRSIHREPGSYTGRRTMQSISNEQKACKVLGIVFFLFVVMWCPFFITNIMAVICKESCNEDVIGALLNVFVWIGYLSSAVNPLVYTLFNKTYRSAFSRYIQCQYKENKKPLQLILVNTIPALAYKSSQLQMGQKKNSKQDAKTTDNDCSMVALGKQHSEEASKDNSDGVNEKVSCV

[11] = target: Histamine H2 receptor (Homo sapiens) (UniProt P25021)
Sequence of Histamine H2 receptor (Homo sapiens) (P25021 whole entry): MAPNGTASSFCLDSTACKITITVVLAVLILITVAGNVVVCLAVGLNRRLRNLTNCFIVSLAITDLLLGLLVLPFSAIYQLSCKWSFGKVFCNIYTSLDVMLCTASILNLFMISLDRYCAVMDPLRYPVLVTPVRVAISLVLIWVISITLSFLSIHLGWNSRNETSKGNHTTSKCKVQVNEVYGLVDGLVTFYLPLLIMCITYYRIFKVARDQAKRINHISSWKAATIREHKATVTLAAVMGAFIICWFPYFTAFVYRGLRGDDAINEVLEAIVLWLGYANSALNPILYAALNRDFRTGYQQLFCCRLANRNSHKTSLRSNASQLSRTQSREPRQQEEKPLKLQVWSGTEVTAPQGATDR

[12] = target: Translocator protein (Homo sapiens) (UniProt P30536)
Sequence of Translocator protein (Homo sapiens) (P30536 whole entry): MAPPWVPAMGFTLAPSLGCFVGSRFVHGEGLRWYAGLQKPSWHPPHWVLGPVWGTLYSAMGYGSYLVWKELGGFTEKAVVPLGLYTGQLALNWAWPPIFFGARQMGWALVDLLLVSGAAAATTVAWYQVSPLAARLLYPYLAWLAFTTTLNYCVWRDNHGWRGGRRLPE

[13] = target: 5-hydroxytryptamine receptor 5A (Homo sapiens) (UniProt P47898)
[14] = target: Sodium-dependent noradrenaline transporter (Homo sapiens) (UniProt P23975)
Sequence of Sodium-dependent noradrenaline transporter (Homo sapiens) (P23975 whole entry): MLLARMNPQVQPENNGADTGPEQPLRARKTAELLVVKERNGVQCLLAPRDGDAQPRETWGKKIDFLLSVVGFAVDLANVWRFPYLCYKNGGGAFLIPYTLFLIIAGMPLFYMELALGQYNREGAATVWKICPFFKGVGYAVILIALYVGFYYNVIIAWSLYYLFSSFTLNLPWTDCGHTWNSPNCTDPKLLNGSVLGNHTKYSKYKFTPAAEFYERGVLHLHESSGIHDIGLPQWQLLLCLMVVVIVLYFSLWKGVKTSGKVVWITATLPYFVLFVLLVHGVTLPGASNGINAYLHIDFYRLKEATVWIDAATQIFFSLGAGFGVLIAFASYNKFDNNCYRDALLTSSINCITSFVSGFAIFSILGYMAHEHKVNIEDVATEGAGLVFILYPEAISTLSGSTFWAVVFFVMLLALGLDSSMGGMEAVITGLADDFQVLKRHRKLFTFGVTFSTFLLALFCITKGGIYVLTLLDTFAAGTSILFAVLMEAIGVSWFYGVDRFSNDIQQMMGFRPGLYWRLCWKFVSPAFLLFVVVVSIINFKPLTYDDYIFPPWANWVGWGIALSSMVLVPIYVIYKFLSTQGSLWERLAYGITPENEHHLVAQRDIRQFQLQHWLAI

[15] = target: T3, Alpha-2B adrenergic receptor (Homo sapiens) (UniProt P18089)
T3 sequence (whole entry): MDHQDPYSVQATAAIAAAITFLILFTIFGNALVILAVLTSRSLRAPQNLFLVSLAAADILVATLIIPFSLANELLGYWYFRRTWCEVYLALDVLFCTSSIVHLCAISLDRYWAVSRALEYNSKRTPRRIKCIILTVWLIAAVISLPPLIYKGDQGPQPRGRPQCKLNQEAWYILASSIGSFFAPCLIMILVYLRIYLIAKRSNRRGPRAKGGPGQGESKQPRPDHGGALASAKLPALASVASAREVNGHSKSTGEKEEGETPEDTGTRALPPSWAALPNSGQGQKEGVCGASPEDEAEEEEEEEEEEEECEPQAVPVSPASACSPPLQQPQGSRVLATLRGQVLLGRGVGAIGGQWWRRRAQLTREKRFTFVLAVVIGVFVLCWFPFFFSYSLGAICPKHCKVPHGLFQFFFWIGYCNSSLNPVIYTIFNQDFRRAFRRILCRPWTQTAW

[16] = target: D(2) dopamine receptor (Homo sapiens) (UniProt P14416)
[17] = target: Sigma intracellular receptor 2 (Homo sapiens) (UniProt Q5BJF2)
Sequence of Sigma intracellular receptor 2 (Homo sapiens) (Q5BJF2 whole entry): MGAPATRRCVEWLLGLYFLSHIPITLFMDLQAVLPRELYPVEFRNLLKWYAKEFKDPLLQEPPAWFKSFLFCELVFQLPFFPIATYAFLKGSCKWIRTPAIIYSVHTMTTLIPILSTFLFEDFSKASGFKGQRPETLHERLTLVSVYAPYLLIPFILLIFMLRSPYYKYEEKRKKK

[18] = target: Histamine H3 receptor (Homo sapiens) (UniProt Q9Y5N1)
[19] = target: Kappa-type opioid receptor (Homo sapiens) (UniProt P41145)
Sequence of Kappa-type opioid receptor (Homo sapiens) (P41145 whole entry): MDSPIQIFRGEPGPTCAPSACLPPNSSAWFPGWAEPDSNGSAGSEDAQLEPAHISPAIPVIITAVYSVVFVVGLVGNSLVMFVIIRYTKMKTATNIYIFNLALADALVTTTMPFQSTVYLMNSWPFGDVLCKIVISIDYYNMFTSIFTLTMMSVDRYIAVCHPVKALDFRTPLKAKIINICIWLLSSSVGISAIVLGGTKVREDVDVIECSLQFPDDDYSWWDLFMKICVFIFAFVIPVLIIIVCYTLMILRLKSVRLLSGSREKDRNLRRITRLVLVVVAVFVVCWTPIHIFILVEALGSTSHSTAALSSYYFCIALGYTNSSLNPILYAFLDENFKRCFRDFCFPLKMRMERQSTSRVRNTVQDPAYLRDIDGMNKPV

[20] = target: 5-hydroxytryptamine receptor 7 (Homo sapiens) (UniProt P34969)
Sequence of 5-hydroxytryptamine receptor 7 (Homo sapiens) (P34969 whole entry): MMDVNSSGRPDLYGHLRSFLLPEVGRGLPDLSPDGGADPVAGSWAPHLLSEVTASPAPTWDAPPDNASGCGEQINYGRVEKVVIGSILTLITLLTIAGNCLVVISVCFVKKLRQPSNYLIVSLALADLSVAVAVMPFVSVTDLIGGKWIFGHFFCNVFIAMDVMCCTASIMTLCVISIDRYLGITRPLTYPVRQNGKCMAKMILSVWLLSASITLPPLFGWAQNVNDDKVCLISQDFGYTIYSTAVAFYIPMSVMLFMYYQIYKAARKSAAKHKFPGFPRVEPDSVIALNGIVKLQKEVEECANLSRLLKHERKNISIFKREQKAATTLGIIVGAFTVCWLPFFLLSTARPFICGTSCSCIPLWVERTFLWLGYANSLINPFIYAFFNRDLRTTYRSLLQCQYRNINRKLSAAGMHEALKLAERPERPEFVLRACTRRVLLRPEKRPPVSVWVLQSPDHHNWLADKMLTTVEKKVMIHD

[21] = target: 5-hydroxytryptamine receptor 6 (Homo sapiens) (UniProt P50406)
[22] = target: D(1A) dopamine receptor (Homo sapiens) (UniProt P21728)
[23] = target: Beta-2 adrenergic receptor (Homo sapiens) (UniProt P07550)
[24] = target: D(1B) dopamine receptor (Homo sapiens) (UniProt P21918)
[25] = target: Sodium-dependent dopamine transporter (Homo sapiens) (UniProt Q01959)
Sequence of Sodium-dependent dopamine transporter (Homo sapiens) (Q01959 whole entry): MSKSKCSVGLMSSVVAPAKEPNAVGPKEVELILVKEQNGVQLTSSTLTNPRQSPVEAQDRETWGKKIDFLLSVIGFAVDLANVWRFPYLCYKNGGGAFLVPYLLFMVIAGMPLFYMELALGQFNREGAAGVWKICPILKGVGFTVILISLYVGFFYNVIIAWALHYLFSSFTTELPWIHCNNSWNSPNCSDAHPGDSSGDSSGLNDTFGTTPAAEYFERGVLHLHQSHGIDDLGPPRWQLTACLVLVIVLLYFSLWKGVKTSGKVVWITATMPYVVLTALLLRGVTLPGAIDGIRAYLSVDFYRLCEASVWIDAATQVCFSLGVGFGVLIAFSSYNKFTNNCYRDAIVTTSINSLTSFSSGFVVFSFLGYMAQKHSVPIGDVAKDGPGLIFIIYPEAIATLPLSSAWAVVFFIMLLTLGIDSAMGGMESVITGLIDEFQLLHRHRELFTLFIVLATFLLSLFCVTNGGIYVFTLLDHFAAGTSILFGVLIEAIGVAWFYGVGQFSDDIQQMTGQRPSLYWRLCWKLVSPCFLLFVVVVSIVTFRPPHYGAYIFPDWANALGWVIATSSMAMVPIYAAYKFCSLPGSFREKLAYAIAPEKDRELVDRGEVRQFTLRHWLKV

[26] = target: Delta-type opioid receptor (Homo sapiens) (UniProt P41143)
[27] = target: Histamine H4 receptor (Homo sapiens) (UniProt Q9H3N8)
Sequence of Histamine H4 receptor (Homo sapiens) (Q9H3N8 whole entry): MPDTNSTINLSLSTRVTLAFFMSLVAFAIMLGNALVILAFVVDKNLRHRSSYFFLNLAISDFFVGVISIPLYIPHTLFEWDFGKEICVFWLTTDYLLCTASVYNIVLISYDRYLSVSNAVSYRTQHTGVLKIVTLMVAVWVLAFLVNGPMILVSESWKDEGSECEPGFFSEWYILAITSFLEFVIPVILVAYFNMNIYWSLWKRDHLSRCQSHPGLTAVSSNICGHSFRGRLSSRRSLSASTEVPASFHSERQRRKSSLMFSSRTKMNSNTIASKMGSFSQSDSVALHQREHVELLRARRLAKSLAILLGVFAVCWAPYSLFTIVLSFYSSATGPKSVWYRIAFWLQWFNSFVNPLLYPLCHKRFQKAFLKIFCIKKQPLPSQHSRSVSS

[28] = target: Beta-3 adrenergic receptor (Homo sapiens) (UniProt P13945)

Sequence of Histamine H1 receptor (Homo sapiens) (P35367 whole entry): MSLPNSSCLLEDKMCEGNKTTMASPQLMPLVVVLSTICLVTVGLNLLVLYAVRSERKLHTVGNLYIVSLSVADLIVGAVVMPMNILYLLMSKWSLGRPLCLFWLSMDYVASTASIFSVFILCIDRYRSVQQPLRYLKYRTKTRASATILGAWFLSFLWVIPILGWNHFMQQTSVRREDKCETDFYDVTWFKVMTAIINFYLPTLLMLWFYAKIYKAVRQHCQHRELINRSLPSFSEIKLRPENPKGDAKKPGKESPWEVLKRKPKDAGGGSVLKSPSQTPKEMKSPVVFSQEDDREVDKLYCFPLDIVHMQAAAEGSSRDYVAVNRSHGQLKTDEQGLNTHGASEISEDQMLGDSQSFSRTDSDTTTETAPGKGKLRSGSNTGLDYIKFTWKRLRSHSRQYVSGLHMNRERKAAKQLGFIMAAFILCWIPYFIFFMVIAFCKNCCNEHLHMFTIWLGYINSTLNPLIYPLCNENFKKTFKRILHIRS

For `Cc1csc(NC(=O)c2cc(F)cc(Oc3cncnc3)c2)n1`, the inhibition [1] was -2.16%, the inhibition [2] was -6.12% and the inhibition [3] was 5.84%. For the same molecule, the inhibition [4] was 6.42%, the inhibition [5] was -8.28% and the inhibition [6] was -2.7%. For the same molecule, the inhibition [7] was -0.94%, the inhibition [8] was 37.2% and the inhibition [9] was 26.7%. It also gave an inhibition [10] of 1.92%, an inhibition [11] of 28.4% and an inhibition [12] of 37.4%. It also gave an inhibition [13] of -6.54%, an inhibition [14] of 10.9% and an inhibition [15] of 6.73%. It also gave an inhibition [16] of 21%, an inhibition [17] of 41.8% and an inhibition [18] of 2.1%. The inhibition [19] was 18.9%, the inhibition [20] was 15.3% and the inhibition [21] was 7.85%. The inhibition [22] was -5.62%, the inhibition [23] was 8.79% and the inhibition [24] was 46%. For the same molecule, the inhibition [25] was 56.1%, the inhibition [26] was -0.43% and the inhibition [27] was 0.79%.

Molecule `Cc1c(C2=CCN(C(=O)N(C)C(C)C)CC2)nnn1-c1cccnc1F` has an inhibition [1] of -5.97%, an inhibition [28] of 14.8% and an inhibition [2] of 60.9%. It also gave an inhibition [4] of 9.65%, an inhibition [5] of 36.2% and an inhibition [6] of 1.95%. For the same molecule, the inhibition [7] was 2.87%, the inhibition [8] was 48.4% and the inhibition [9] was 6.62%. It also gave an inhibition [10] of 85.9%, an inhibition [11] of 29.8% and an inhibition [12] of -1.56%. The inhibition [13] was 7.43%, the inhibition [15] was 21.3% and the inhibition [16] was 11.9%. It also gave an inhibition [17] of 64.4%, an inhibition [18] of -3.59% and an inhibition [20] of -7.92%. The inhibition [21] was 1.27%, the inhibition [23] was -6.84% and the inhibition [27] was 9.6%.

In the case of `COc1ccnc(N2CCC3(CCCN(Cc4c[nH]c5ccccc45)C3=O)CC2)n1`, the inhibition [28] is reported as -5.97%, the inhibition [2] is reported as 23.1% and the inhibition [3] is reported as 13.2%. It also gave an inhibition [4] of 4.51%, an inhibition [5] of -4.41% and an inhibition [7] of 0.43%. For the same molecule, the inhibition [8] was 16%, the inhibition [9] was 23.6% and the inhibition [10] was 7.53%. The inhibition [11] was -7.83%, the inhibition [12] was 75.8% and the inhibition [13] was -9.26%. It also gave an inhibition [14] of 16.6%, an inhibition [15] of -7.28% and an inhibition [16] of 7%. The inhibition [17] was 34.7%, the inhibition [18] was 0.7% and the inhibition [19] was 6.61%. For the same molecule, the inhibition [20] was 8.03%, the inhibition [21] was 19.4% and the inhibition [22] was -4.13%. The inhibition [23] was 11.9%, the inhibition [24] was 20.4% and the inhibition [25] was 44.7%. For the same molecule, the inhibition [26] was 41.8% and the inhibition [27] was -2.57%.

`Cc1nnn(-c2ccc(-c3ccc(C4(C(=O)O)CC4)cc3)cc2)c1NC(=O)O[C@H](C)c1ccccc1` gave an inhibition [1] of -7.78%, an inhibition [28] of 24.9% and an inhibition [2] of 52.8%. The inhibition [3] was 16.8%, the inhibition [4] was 2.71% and the inhibition [5] was -8.07%. It also gave an inhibition [6] of -2.63%, an inhibition [7] of 7.62% and an inhibition [8] of 20.9%. It also gave an inhibition [9] of -0.33%, an inhibition [10] of 2.49% and an inhibition [11] of 4.74%. It also gave an inhibition [12] of 3.3%, an inhibition [13] of 15.6% and an inhibition [14] of 2.8%. The inhibition [15] was 4.78%, the inhibition [16] was 25.4% and the inhibition [17] was -0.49%. For the same molecule, the inhibition [18] was -3.65%, the inhibition [19] was -4.59% and the inhibition [21] was 37.4%. For the same molecule, the inhibition [22] was -4.64%, the inhibition [23] was 6.66% and the inhibition [24] was 43.6%. For the same molecule, the inhibition [25] was 35%, the inhibition [26] was 7.05% and the inhibition [27] was -4.07%.

`COC1CCN(c2cccc(-c3cc(NC(C)=O)nc(-n4nc(C)cc4C)n3)n2)CC1` gave an inhibition [1] of 41.4%, an inhibition [28] of 22.6% and an inhibition [2] of 14.4%. The inhibition [4] was 26.3%, the inhibition [5] was 27.3% and the inhibition [7] was 1.9%. The inhibition [8] was 80.2%, the inhibition [9] was 30.3% and the inhibition [10] was 1.6%. It also gave an inhibition [11] of 26%, an inhibition [12] of 70.3% and an inhibition [13] of -1.72%. For the same molecule, the inhibition [15] was -0.88%, the inhibition [16] was 12.8% and the inhibition [17] was 36.3%. For the same molecule, the inhibition [18] was 1.55%, the inhibition [20] was 0.28% and the inhibition [21] was 40.8%. For the same molecule, the inhibition [22] was -3.87%, the inhibition [23] was 2.28% and the inhibition [24] was 3.58%. The inhibition [25] was 49.2%, the inhibition [26] was -6% and the inhibition [27] was 5.32%.
